For 31 compounds, Displacement and Ki results are on record in ChEMBL document CHEMBL1131824, “3-Alkyl-(5,5'-diphenyl)imidazolidineiones as new cannabinoid receptor ligands” (Bioorg Med Chem Lett, 1999).

Assay [1] addresses T1, Cannabinoid receptor 1 (Homo sapiens, UniProt P21554). Put plainly: Displacement of [3H]-SR- 141716A binding to human CB1 receptor expressed in CHO cell membranes at the concentration of 10 uM. (In a radioligand displacement assay an active substance lowers the binding of a labelled ligand.)
In assay [2] the target is T1, Cannabinoid receptor 1. Put plainly: Displacement of [3H]-SR- 141716A binding to human CB1 receptor expressed in CHO cell membranes at the concentration of 1 uM.
Assay [3] concerns the target T1, Cannabinoid receptor 1. Put plainly: Displacement of [3H]-SR- 141716A binding to human CB1 receptor expressed in CHO cell membranes at the concentration of 10 uM; Not significant.
The target in assay [4] is T1, Cannabinoid receptor 1. As to the kind of experiment: Ability to displace [3H]-SR- 141716A binding to CB1 receptor expressed in CHO cell membrane. It counts as cell membranes.
The target in assay [5] is T1, Cannabinoid receptor 1. Put plainly: biochemical. It counts as cell-based, CHO.
For assay [6], the target named is T1, Cannabinoid receptor 1. As to the kind of experiment: Binding affinity for brain CBI receptor was determined.

The source made the active and inactive calls. No cut-off for these calls is given here.

T1 sequence (P21554 whole entry): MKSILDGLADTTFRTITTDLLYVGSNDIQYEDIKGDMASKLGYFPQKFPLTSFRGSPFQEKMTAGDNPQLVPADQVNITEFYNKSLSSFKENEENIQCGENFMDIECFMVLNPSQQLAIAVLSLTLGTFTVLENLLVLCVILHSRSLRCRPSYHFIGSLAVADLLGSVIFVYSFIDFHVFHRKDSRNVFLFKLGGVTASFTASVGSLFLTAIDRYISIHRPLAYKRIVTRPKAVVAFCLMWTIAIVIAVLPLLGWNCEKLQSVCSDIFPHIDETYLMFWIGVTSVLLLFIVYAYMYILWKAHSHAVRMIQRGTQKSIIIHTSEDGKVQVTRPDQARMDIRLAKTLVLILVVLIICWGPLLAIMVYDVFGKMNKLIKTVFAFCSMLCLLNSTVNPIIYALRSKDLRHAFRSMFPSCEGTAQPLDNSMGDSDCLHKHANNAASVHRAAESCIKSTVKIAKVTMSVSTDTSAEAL

As to `CCCCCN1C(=O)NC(c2ccccc2)(c2ccccc2)C1=O`, the Displacement on Cannabinoid receptor 1 [1] came out at 35.4%.

As to `CCCCCCCCN1C(=O)NC(c2ccc(Br)cc2)(c2ccc(Br)cc2)C1=O`, the Displacement on Cannabinoid receptor 1 [1] turned out to be 80%; on Cannabinoid receptor 1 [2], 48.2%.

In the case of `O=C1NC(c2ccccc2)(c2ccccc2)C(=O)N1C1CC1`, the Displacement at Cannabinoid receptor 1 [1] was under 5%.

As for `CCCCCCN1C(=O)NC(c2ccc(Br)cc2)(c2ccc(Br)cc2)C1=O`, the results for the Displacement on Cannabinoid receptor 1 [1] and at Cannabinoid receptor 1 [2] were 72.1% and 30.2%, respectively.

Regarding `CCCCCCN1C(=O)NC(c2ccc(F)cc2)(c2ccc(F)cc2)C1=O`, at Cannabinoid receptor 1 [1], the Displacement was determined as 40.6%.

With `O=C1NC(=O)C(c2ccccc2)(c2ccccc2)N1`, at Cannabinoid receptor 1 [3], the Displacement result is “inactive”.

Turning to `CCCCCCCN1C(=O)NC(c2ccc(Br)cc2)(c2ccc(Br)cc2)C1=O`, the Ki on Cannabinoid receptor 1 [4] is 97.9 nM. The values for the Displacement on Cannabinoid receptor 1 [1] and on Cannabinoid receptor 1 [2] were 89.2% and 51.5%, respectively.

On Cannabinoid receptor 1 [1], `CCCCCCCCN1C(=O)NC(c2ccccc2)(c2ccccc2)C1=O` showed a Displacement of 61.2%.

`O=C1NC(c2ccccc2)(c2ccccc2)C(=O)N1Cc1ccccc1`: the Displacement at Cannabinoid receptor 1 [1] came to 40.6%.

On Cannabinoid receptor 1 [1], `CCCN1C(=O)NC(c2ccccc2)(c2ccccc2)C1=O` came in with a Displacement of under 20%.

For the compound `CCCCCCN1C(=O)NC(c2ccc(C)cc2)(c2ccc(C)cc2)C1=O`, the Displacement on Cannabinoid receptor 1 [1] is 46.8%.

With `COc1ccc(C2(c3ccc(OC)cc3)NC(=O)NC2=O)cc1`, the Displacement result at Cannabinoid receptor 1 [3] was “inactive”.

At Cannabinoid receptor 1 [1], `CN(C)CCN1C(=O)NC(c2ccccc2)(c2ccccc2)C1=O` registered a Displacement of under 5%.

With `CCCCCCC(C)(C)c1cc(O)c2c(c1)OC(C)(C)[C@@H]1CCC(CO)C[C@@H]21` (stereo partly specified), the Ki at Cannabinoid receptor 1 [5] was 0.82 nM.

With `O=C1NC(=O)C(c2ccc(Br)cc2)(c2ccc(Br)cc2)N1`, the Displacement result on Cannabinoid receptor 1 [3] is “inactive”.

In turn, `O=C1NC(c2ccc(Br)cc2)(c2ccc(Br)cc2)C(=O)N1CCN1CCOCC1` had a Ki on Cannabinoid receptor 1 [4] of 70.3 nM. Moreover, the Displacement at Cannabinoid receptor 1 [1] was found to be 91.2%; at Cannabinoid receptor 1 [2], 54.1%.

In turn, `O=C1NC(c2ccc(F)cc2)(c2ccc(F)cc2)C(=O)N1CCN1CCOCC1` came in with a Displacement at Cannabinoid receptor 1 [1] of 30.3%.

For the compound `O=C1NC(c2ccccc2)(c2ccccc2)C(=O)N1CCN1CCCCC1`, on Cannabinoid receptor 1 [1], the Displacement is under 15%.

On to `CCCCCCCN1C(=O)NC(c2ccc(F)cc2)(c2ccc(F)cc2)C1=O`, for which the Displacement on Cannabinoid receptor 1 [1] is 51.4%.

In turn, `CCCCCCN1C(=O)NC(c2ccccc2)(c2ccccc2)C1=O` yielded a Displacement on Cannabinoid receptor 1 [1] of 35.6%.

In the case of `CCCCCCN1C(=O)NC(c2ccc(OC)cc2)(c2ccc(OC)cc2)C1=O`, the results for the Displacement at Cannabinoid receptor 1 [1] and at Cannabinoid receptor 1 [2] were 66.6% and 23%, respectively.

Compound `COc1ccc(C2(c3ccc(OC)cc3)NC(=O)N(CCN3CCOCC3)C2=O)cc1` showed a Displacement on Cannabinoid receptor 1 [1] of 21.7%.

At Cannabinoid receptor 1 [1], `CCCCCCCN1C(=O)NC(c2ccc(C)cc2)(c2ccc(C)cc2)C1=O` had a Displacement of 51.3%.

The compound `CCCCN1C(=O)NC(c2ccccc2)(c2ccccc2)C1=O` returned a Displacement on Cannabinoid receptor 1 [1] of 25.1%.

In turn, `Cc1ccc(C2(c3ccc(C)cc3)NC(=O)N(CCN3CCOCC3)C2=O)cc1` had a Displacement at Cannabinoid receptor 1 [1] of 23.9%.

Take `O=C1NC(=O)C(c2ccc(F)cc2)(c2ccc(F)cc2)N1`: at Cannabinoid receptor 1 [3], the Displacement entry is “inactive”.

Regarding `CCCCCn1ccc(C(=O)c2cccc3ccccc23)c1`, the Ki on Cannabinoid receptor 1 [6] was determined as 87 nM.

The compound `O=C1NC(c2ccc(Br)cc2)(c2ccc(Br)cc2)C(=O)N1CCCO` gave a Ki at Cannabinoid receptor 1 [4] of 103 nM. Also, the Displacement is 88.4% at Cannabinoid receptor 1 [1] and 50.2% on Cannabinoid receptor 1 [2].

`CCCCCCCCN1C(=O)NC(c2ccc(F)cc2)(c2ccc(F)cc2)C1=O`: the figures for the Displacement at Cannabinoid receptor 1 [1] and on Cannabinoid receptor 1 [2] were 62.5% and 15.3%, respectively.

With `O=C1NC(c2ccccc2)(c2ccccc2)C(=O)N1CCN1CCOCC1`, the Displacement on Cannabinoid receptor 1 [1] is under 5%.

As to `Cc1ccc(C2(c3ccc(C)cc3)NC(=O)NC2=O)cc1`, the Displacement result at Cannabinoid receptor 1 [3] is “inactive”.

What is called Ki is the equilibrium dissociation constant of an inhibitor or competing ligand from its target. A low value points to higher affinity.
